{
  "source": "patent US8993562B2",
  "about": "“Imidazo[1,2-b]pyridazines, processes, uses, intermediates and compositions” (Ferrer Internacional, S.A., priority 2006, dated 2015)",
  "system": "male CD1 mice",
  "assay": "In vivo predictive sedation-hypnosis test (traveled distance)",
  "conditions": "Mus musculus, ip, 0.5 h, traveled distance over 30 min versus control, read-out: % inhib motor activity; for inhibition in vivo at 98 µmol/kg: 98.0 μmol/kg intraperitoneal; for inhibition in vivo at 0.98 µmol/kg: 0.98 μmol/kg intraperitoneal",
  "description": "b) In Vivo Determination of Predictive Sedative-hypnotic Action\nThe in vivo effects of these compounds were assessed by a predictive sedation-hypnosis test in mice (D. J. Sanger et al., Eur. J. Pharmacol., 313, 35-42, 1996; and G. Griebel et al., Psychopharmacology, 146, 205-213, 1999).\nGroups of 5-8 male CD1 mice, weighing 22-26 g at the time of test, were used. […] Compounds were suspended in 0.25% agar with one drop of Tween in a volume of 10 mL/kg. Control animals were given the vehicle alone. Using a Smart System (Panlab, S. L., Spain) the traveled distance in cm is recorded for each mouse at 5-minutes intervals during a period of 30 minutes after dosing. The inhibition percentage of traveled distance of treated animals versus control animals (the first 5 minutes were discarded) was calculated.",
  "data": [
    {"compound": "CCCN(CCOC(C)=O)C(=O)Cc1c(-c2ccc(C)cc2)nc2ccc(C)nn12", "note": "[Example 80, Acetic acid 2-{[2-(6-methyl-2-p-tolyl-imidazo[1,2-b]pyridazin-3-yl)-acetyl]-propyl-amino}-ethyl ester]", "values": [
      {"measurement": "inhibition in vivo at 98 µmol/kg", "result": 94.4, "unit": "%"}
    ]},
    {"compound": "Cc1ccc2nc(-c3ccc(Br)cc3)c(CC(=O)N3CCOCC3)n2n1", "note": "[Example 14, 2-[2-(4-Bromo-phenyl)-6-methyl-imidazo[1,2-b]pyridazin-3-yl]-1-morpholin-4-yl-ethanone]", "values": [
      {"measurement": "inhibition in vivo at 0.98 µmol/kg", "result": 4.77, "unit": "%"},
      {"measurement": "inhibition in vivo at 98 µmol/kg", "result": 95.6, "unit": "%"}
    ]},
    {"compound": "CCOc1ccc2nc(-c3ccc(Br)cc3)c(CC(=O)N3CCCCC3)n2n1", "note": "[Example 10, 2-[2-(4-Bromo-phenyl)-6-ethoxy-imidazo[1,2-b]pyridazin-3-yl]-1-piperidin-1-yl-ethanone]", "values": [
      {"measurement": "inhibition in vivo at 0.98 µmol/kg", "result": 29.5, "unit": "%"},
      {"measurement": "inhibition in vivo at 98 µmol/kg", "result": 93.5, "unit": "%"}
    ]},
    {"compound": "CCCCN(CCCC)C(=O)Cc1c(-c2ccc(Cl)cc2)nc2ccc(OCC)nn12", "note": "[Example 24, N,N-Dibutyl-2-[2-(4-chloro-phenyl)-6-ethoxy-imidazo[1,2-b]pyridazin-3-yl]-acetamide]", "values": [
      {"measurement": "inhibition in vivo at 0.98 µmol/kg", "result": 3.65, "unit": "%"},
      {"measurement": "inhibition in vivo at 98 µmol/kg", "result": 86.5, "unit": "%"}
    ]},
    {"compound": "Cc1ccc2nc(-c3ccc(Cl)cc3)c(CC(=O)NN)n2n1", "note": "[Example 102, [2-(4-Chloro-phenyl)-6-methyl-imidazo[1,2-b]pyridazin-3-yl]-acetic acid hydrazide]", "values": [
      {"measurement": "inhibition in vivo at 98 µmol/kg", "result": 85.5, "unit": "%"}
    ]},
    {"compound": "CCN(CC)C(=O)Cc1c(-c2ccc(C)cc2)nc2ccc(Cl)nn12", "note": "[Example 1, 2-(6-Chloro-2-p-tolyl-imidazo[1,2-b]pyridazin-3-yl)-N,N-diethyl-acetamide]", "values": [
      {"measurement": "inhibition in vivo at 0.98 µmol/kg", "result": 27.6, "unit": "%"},
      {"measurement": "inhibition in vivo at 98 µmol/kg", "result": 94.7, "unit": "%"}
    ]},
    {"compound": "CCOc1ccc2nc(-c3ccc(Br)cc3)c(CC(=O)N3CCOCC3)n2n1", "note": "[Example 9, 2-[2-(4-Bromo-phenyl)-6-ethoxy-imidazo[1,2-b]pyridazin-3-yl]-1-morpholin-4-yl-ethanone]", "values": [
      {"measurement": "inhibition in vivo at 0.98 µmol/kg", "result": 19.9, "unit": "%"},
      {"measurement": "inhibition in vivo at 98 µmol/kg", "result": 93.8, "unit": "%"}
    ]},
    {"compound": "CCCCN(CCCC)C(=O)Cc1c(-c2ccc(OC)cc2)nc2ccc(OC)nn12", "note": "[Example 77, N,N-Dibutyl-2-[6-methoxy-2-(4-methoxy-phenyl)-imidazo[1,2-b]pyridazin-3-yl]-acetamide]", "values": [
      {"measurement": "inhibition in vivo at 98 µmol/kg", "result": 89.3, "unit": "%"}
    ]},
    {"compound": "Cc1ccc(-c2nc3ccc(Cl)nn3c2CC(=O)N2CCCCC2)cc1", "note": "[Example 4, 2-(6-Chloro-2-p-tolyl-imidazo[1,2-b]pyridazin-3-yl)-1-piperidin-1-yl-ethanone]", "values": [
      {"measurement": "inhibition in vivo at 0.98 µmol/kg", "result": 38.4, "unit": "%"},
      {"measurement": "inhibition in vivo at 98 µmol/kg", "result": 94.7, "unit": "%"}
    ]},
    {"compound": "Cc1ccc(-c2nc3ccc(Cl)nn3c2CC(=O)N2CCCC2)cc1", "note": "[Example 6, 2-(6-Chloro-2-p-tolyl-imidazo[1,2-b]pyridazin-3-yl)-1-pyrrolidin-1-yl-ethanone]", "values": [
      {"measurement": "inhibition in vivo at 0.98 µmol/kg", "result": 51.9, "unit": "%"},
      {"measurement": "inhibition in vivo at 98 µmol/kg", "result": 96.9, "unit": "%"}
    ]},
    {"compound": "CCCCN(CCCC)C(=O)Cc1c(-c2ccc(OC)cc2)nc2ccc(C)nn12", "note": "[Example 72, N,N-Dibutyl-2-[2-(4-methoxy-phenyl)-6-methyl-imidazo[1,2-b]pyridazin-3-yl]-acetamide]", "values": [
      {"measurement": "inhibition in vivo at 98 µmol/kg", "result": 93.3, "unit": "%"}
    ]},
    {"compound": "Cc1ccc(-c2nc3ccc(Cl)nn3c2CC(=O)N2CCOCC2)cc1", "note": "[Example 5, 2-(6-Chloro-2-p-tolyl-imidazo[1,2-b]pyridazin-3-yl)-1-morpholin-4-yl-ethanone]", "values": [
      {"measurement": "inhibition in vivo at 0.98 µmol/kg", "result": 41.1, "unit": "%"},
      {"measurement": "inhibition in vivo at 98 µmol/kg", "result": 93.7, "unit": "%"}
    ]},
    {"compound": "CCCN(CCC)C(=O)Cc1c(-c2ccc(Cl)cc2)nc2ccc(OCC)nn12", "note": "[Example 23, 2-[2-(4-Chloro-phenyl)-6-ethoxy-imidazo[1,2-b]pyridazin-3-yl]-N,N-dipropyl-acetamide]", "values": [
      {"measurement": "inhibition in vivo at 0.98 µmol/kg", "result": 12.4, "unit": "%"},
      {"measurement": "inhibition in vivo at 98 µmol/kg", "result": 91.7, "unit": "%"}
    ]},
    {"compound": "CCCN(CCC)C(=O)Cc1c(-c2ccc(Br)cc2)nc2ccc(OCC)nn12", "note": "[Example 12, 2-[2-(4-Bromo-phenyl)-6-ethoxy-imidazo[1,2-b]pyridazin-3-yl]-N,N-dipropyl-acetamide]", "values": [
      {"measurement": "inhibition in vivo at 0.98 µmol/kg", "result": 15.1, "unit": "%"},
      {"measurement": "inhibition in vivo at 98 µmol/kg", "result": 83.4, "unit": "%"}
    ]},
    {"compound": "CCOc1ccc2nc(-c3ccc(Br)cc3)c(CC(=O)N(CC)CC)n2n1", "note": "[Example 13, 2-[2-(4-Bromo-phenyl)-6-ethoxy-imidazo[1,2-b]pyridazin-3-yl]-N,N-diethyl-acetamide]", "values": [
      {"measurement": "inhibition in vivo at 0.98 µmol/kg", "result": 15.1, "unit": "%"},
      {"measurement": "inhibition in vivo at 98 µmol/kg", "result": 92.1, "unit": "%"}
    ]},
    {"compound": "Cc1ccc(-c2nc3ccc(C)nn3c2CC(=O)N2CC(C)CC(C)C2)cc1", "note": "(stereo not shown) [Example 81, 1-(3,5-Dimethyl-piperidin-1-yl)-2-(6-methyl-2-p-tolyl-imidazo[1,2-b]pyridazin-3-yl)-ethanone]", "values": [
      {"measurement": "inhibition in vivo at 98 µmol/kg", "result": 90.8, "unit": "%"}
    ]},
    {"compound": "CCCCN(CCCC)C(=O)Cc1c(-c2ccc(Cl)cc2)nc2ccc(C)nn12", "note": "[Example 22, N,N-Dibutyl-2-[2-(4-chloro-phenyl)-6-methyl-imidazo[1,2-b]pyridazin-3-yl]-acetamide]", "values": [
      {"measurement": "inhibition in vivo at 0.98 µmol/kg", "result": 22.2, "unit": "%"},
      {"measurement": "inhibition in vivo at 98 µmol/kg", "result": 88, "unit": "%"}
    ]},
    {"compound": "CCCCN(CCCC)C(=O)Cc1c(-c2ccc(Br)cc2)nc2ccc(OCC)nn12", "note": "[Example 11, 2-[2-(4-Bromo-phenyl)-6-ethoxy-imidazo[1,2-b]pyridazin-3-yl]-N,N-dibutyl-acetamide]", "values": [
      {"measurement": "inhibition in vivo at 0.98 µmol/kg", "result": 15.3, "unit": "%"},
      {"measurement": "inhibition in vivo at 98 µmol/kg", "result": 79.8, "unit": "%"}
    ]},
    {"compound": "CCOc1ccc2nc(-c3ccc(Cl)cc3)c(CC(=O)N(CC)CC)n2n1", "note": "[Example 20, 2-[2-(4-Chloro-phenyl)-6-ethoxy-imidazo[1,2-b]pyridazin-3-yl]-N,N-diethyl-acetamide]", "values": [
      {"measurement": "inhibition in vivo at 98 µmol/kg", "result": 91.5, "unit": "%"}
    ]},
    {"compound": "CCCN(CCC)C(=O)Cc1c(-c2ccc(Br)cc2)nc2ccc(C)nn12", "note": "[Example 17, 2-[2-(4-Bromo-phenyl)-6-methyl-imidazo[1,2-b]pyridazin-3-yl]-N,N-dipropyl-acetamide]", "values": [
      {"measurement": "inhibition in vivo at 0.98 µmol/kg", "result": 9.91, "unit": "%"},
      {"measurement": "inhibition in vivo at 98 µmol/kg", "result": 93.1, "unit": "%"}
    ]},
    {"compound": "CCCCN(CCCC)C(=O)Cc1c(-c2ccc(F)cc2)nc2ccc(C)nn12", "note": "[Example 40, N,N-Dibutyl-2-[2-(4-fluoro-phenyl)-6-methyl-imidazo[1,2-b]pyridazin-3-yl]-acetamide]", "values": [
      {"measurement": "inhibition in vivo at 98 µmol/kg", "result": 91.8, "unit": "%"}
    ]},
    {"compound": "CCCCN(CCCC)C(=O)Cc1c(-c2ccc(F)cc2)nc2ccc(OC)nn12", "note": "[Example 42, N,N-Dibutyl-2-[2-(4-fluoro-phenyl)-6-methoxy-imidazo[1,2-b]pyridazin-3-yl]-acetamide]", "values": [
      {"measurement": "inhibition in vivo at 98 µmol/kg", "result": 91, "unit": "%"}
    ]},
    {"compound": "Cc1ccc2nc(-c3ccc(Br)cc3)c(CC(=O)NN)n2n1", "note": "[Example 100, [2-(4-Bromo-phenyl)-6-methyl-imidazo[1,2-b]pyridazin-3-yl]-acetic acid hydrazide]", "values": [
      {"measurement": "inhibition in vivo at 98 µmol/kg", "result": 93.7, "unit": "%"}
    ]}
  ]
}
